Data from ChEMBL document CHEMBL6103672, “Discovery of HMPL-306 (Ranosidenib), a New Potent and Selective Dual Inhibitor of Mutant IDH1 and 2 in Clinical Development for Cancer Treatment” (ACS Med Chem Lett, 2025).
pIC50: −log10 of the molar value.

Tests used:
[1] = Apparent permeability across apical to basolateral side in human Caco-2 cells at 10 uM incubated for 1 hrs by LC-MS/MS analysis
[2] = Oral bioavailability in male ICR mouse at 10 mg/kg measured after 8 hrs by LC/MS/MS analysis; assay type: ADME, organism-based; conditions: in vivo
[3] = Clearance in male ICR mouse at 2.5 mg/kg, iv measured after 8 hrs by LC/MS/MS analysis; assay type: ADME, organism-based; conditions: in vivo
[4] = Cmax in male ICR mouse at 10 mg/kg, po measured after 8 hrs by LC/MS/MS analysis; assay type: ADME, organism-based; conditions: in vivo
[5] = Apparent permeability across basolateral to apical side in human Caco-2 cells at 10 uM incubated for 1 hrs by LC-MS/MS analysis
[6] = Volume of distribution at steady state in male ICR mouse at 2.5 mg/kg, iv measured after 8 hrs by LC/MS/MS analysis; assay type: ADME, organism-based; conditions: in vivo, read-out: Vdss
[7] = Metabolic stability in male SD rat liver microsomes assessed as parent compound remaining at 1 uM measured after 30 mins in presence of NADPH by LC-MS analysis; assay type: ADME, Microsome; conditions: Sprague-Dawley, read-out: Stability
[8] = Inhibition of IDH2 R140Q mutant in human U-87 MG cells incubated for 72 hrs by measuring 2-HG production by fluorescence based analysis; assay type: functional, cell-based, U-87MG ATCC; conditions: Homo sapiens, U-87 MG, 72 h
[9] = Inhibition of IDH1 R132H mutant in human U-87 MG cells incubated for 72 hrs by measuring 2-HG production by fluorescence based analysis; assay type: functional, cell-based, U-87MG ATCC; conditions: Homo sapiens, U-87 MG, 72 h
[10] = AUC(0 to infinity) in male ICR mouse at 10 mg/kg, po measured after 8 hrs by LC/MS/MS analysis; assay type: ADME, organism-based; conditions: in vivo
[11] = AUC(0 to t) in male ICR mouse at 10 mg/kg, po measured after 8 hrs by LC/MS/MS analysis; assay type: ADME, organism-based; conditions: in vivo
[12] = Half life in male ICR mouse at 10 mg/kg, po measured after 8 hrs by LC/MS/MS analysis; assay type: ADME, organism-based; conditions: in vivo
[13] = Metabolic stability in male ICR mouse liver microsomes assessed as parent compound remaining at 1 uM measured after 30 mins in presence of NADPH by LC-MS analysis; assay type: ADME, Microsome; conditions: read-out: Stability
[14] = Inhibition of IDH2 R172K mutant in human HEK293 cells incubated for 72 hrs by measuring 2-HG production by fluorescence based analysis; assay type: functional, cell-based; conditions: HEK293, 72 h
UGT1A1 = target: T1, UGT1A1 (Homo sapiens, UniProt P22309); assay: Inhibition of UGT1A1 (unknown origin) at 10 uM relative to control; assay type: ADME
T1 sequence (P22309 whole entry): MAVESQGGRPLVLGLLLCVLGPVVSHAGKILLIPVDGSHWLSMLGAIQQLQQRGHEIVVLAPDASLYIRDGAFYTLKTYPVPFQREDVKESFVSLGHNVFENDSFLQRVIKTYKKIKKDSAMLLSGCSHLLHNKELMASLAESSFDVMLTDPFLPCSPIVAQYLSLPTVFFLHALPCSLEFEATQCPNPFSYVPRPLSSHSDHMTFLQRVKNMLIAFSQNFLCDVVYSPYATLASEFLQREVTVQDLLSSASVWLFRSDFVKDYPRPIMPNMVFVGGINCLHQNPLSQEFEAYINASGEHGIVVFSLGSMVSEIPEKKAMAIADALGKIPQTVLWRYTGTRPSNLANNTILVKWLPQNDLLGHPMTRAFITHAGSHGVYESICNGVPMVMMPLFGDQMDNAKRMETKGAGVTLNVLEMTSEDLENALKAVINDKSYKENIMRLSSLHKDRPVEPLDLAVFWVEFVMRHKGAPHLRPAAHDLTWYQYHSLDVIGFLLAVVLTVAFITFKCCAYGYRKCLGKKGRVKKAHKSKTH

[15] = In vivo inhibition of 2-HG in BALB/c nude mouse xenografted with human U-87 MG cells harboring IDH2 R140Q mutant at 25 mg/kg, po measured after 40 hrs post dose; assay type: functional
[16] = In vivo inhibition of 2-HG in BALB/c nude mouse xenografted with human U-87 MG cells harboring IDH2 R140Q mutant at 25 mg/kg, po measured after 24 hrs post dose; assay type: functional
[17] = target: Isocitrate dehydrogenase [NADP], mitochondrial (Homo sapiens, UniProt P48735, R140Q); assay: Inhibition of IDH2 R140Q mutant (unknown origin) using alpha-ketoglutarate as substrate preincubated with compound for 16 hrs followed by substrate addition and measured after 1 hr in presence of NADPH by fluorescence based analysis
[18] = Inhibition of IDH2 R140Q mutant in human TF-1 cells incubated for 72 hrs by measuring 2-HG production by fluorescence based analysis; assay type: functional, cell-based; conditions: TF-1, 72 h
Adenosine receptor A3 = target: T2, Adenosine receptor A3 (Homo sapiens, UniProt P0DMS8); assay: Inhibition of adenosine A3 receptor (unknown origin); assay type: toxicity
T2 sequence (P0DMS8 whole entry): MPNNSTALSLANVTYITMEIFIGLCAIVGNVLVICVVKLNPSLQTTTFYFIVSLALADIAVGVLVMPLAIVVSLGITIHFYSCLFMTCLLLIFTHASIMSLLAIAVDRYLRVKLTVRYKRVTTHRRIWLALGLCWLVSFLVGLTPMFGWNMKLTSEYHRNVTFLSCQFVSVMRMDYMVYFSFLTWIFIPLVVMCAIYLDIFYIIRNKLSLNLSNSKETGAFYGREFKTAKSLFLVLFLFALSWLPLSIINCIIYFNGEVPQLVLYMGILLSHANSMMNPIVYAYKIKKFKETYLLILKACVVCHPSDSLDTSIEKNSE

[19] = AUC(0 to t) in male ICR mouse at 10 mg/kg, po measured upto 24 hrs by LC/MS/MS analysis; assay type: ADME, organism-based; conditions: in vivo
[20] = Inhibition of IDH1 R132C mutant in human HT-1080 cells incubated for 72 hrs by measuring 2-HG production by fluorescence based analysis; assay type: functional, cell-based; conditions: HT-1080, 72 h
[21] = Inhibition of IDH1 R132H mutant in human TF-1 cells incubated for 72 hrs by measuring 2-HG production by fluorescence based analysis; assay type: functional, cell-based; conditions: TF-1, 72 h
[22] = In vivo inhibition of 2-HG in BALB/c nude mouse xenografted with human HT-1080 cells harboring IDH1 R132C mutant at 50 mg/kg, po measured after 40 hrs post dose; assay type: functional
[23] = In vivo inhibition of 2-HG in BALB/c nude mouse xenografted with human HT-1080 cells harboring IDH1 R132C mutant at 50 mg/kg, po measured after 24 hrs post dose; assay type: functional
[24] = Ratio of drug concentration in brain to plasma of BALB/c nude mouse xenografted with human U-87 MG cells harboring IDH2 R140Q mutant at 50 mg/kg measured after 16 hrs by LC/MS/MS analysis; assay type: ADME, organism-based; conditions: read-out: BPR
[25] = Ratio of drug concentration in brain to plasma of BALB/c nude mouse xenografted with human U-87 MG cells harboring IDH2 R140Q mutant at 50 mg/kg measured after 24 hrs by LC/MS/MS analysis; assay type: ADME, organism-based; conditions: read-out: BPR

Chain of Isocitrate dehydrogenase [NADP], mitochondrial (P48735 40-452 R140Q limits assumed): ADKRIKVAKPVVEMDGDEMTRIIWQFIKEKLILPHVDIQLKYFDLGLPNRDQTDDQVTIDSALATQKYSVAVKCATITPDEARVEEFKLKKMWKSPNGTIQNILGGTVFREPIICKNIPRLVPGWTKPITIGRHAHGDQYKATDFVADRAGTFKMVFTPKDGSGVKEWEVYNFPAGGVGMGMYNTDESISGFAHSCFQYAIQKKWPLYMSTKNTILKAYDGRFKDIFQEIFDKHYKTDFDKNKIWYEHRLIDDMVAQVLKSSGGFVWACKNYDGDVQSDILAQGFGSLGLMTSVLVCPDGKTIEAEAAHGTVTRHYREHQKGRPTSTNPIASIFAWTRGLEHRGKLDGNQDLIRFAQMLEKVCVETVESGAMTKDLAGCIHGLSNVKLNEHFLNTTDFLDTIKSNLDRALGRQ

bioavailability [2] | clearance [3] | Cmax [4] | Vd [6] | pIC50 [8] | pIC50 [9] | AUC(0-inf) [10] | half-life [12] | AUC(0-t) at 24 h [19] | Structure (SMILES) | other results
134% | 14.1 mL/min/kg | 4950 ng/mL | 1.16 L/kg | 7.38 | 7.00 | 15800 ng·h/mL | 2 h | – | C[C@@H](Nc1nc(N[C@H](C)C(F)(F)F)nc(C2=C(F)[C@@H](O)CCC2)n1)C(F)(F)F | Papp A→B at 1 h, 10 µM [1]: 46.8 ×10⁻⁶ cm/s; Papp B→A at 1 h, 10 µM [5]: 25.9 ×10⁻⁶ cm/s; remaining at 0.5 h, 1 µM [7]: 92.7%; AUC(0-t) at 8 h [11]: 14800 ng·h/mL; remaining at 0.5 h, 1 µM [13]: 86.2%
95.1% | 6.9 mL/min/kg | 1870 ng/mL | 1.72 L/kg | 7.37 | – | 23000 ng·h/mL | 3.3 h | 22900 ng·h/mL | CC(C)(O)CNc1nc(Nc2ccnc(C(F)(F)F)c2)nc(-c2cccc(C(F)(F)F)n2)n1 [ENASIDENIB] | pIC50 [14]: 5.29; inhibition at 10 µM (UGT1A1): 76.1%; inhibition (INH) [15]: 37%; inhibition (INH) [16]: 87%; pIC50 [17]: 7.43; pIC50 [18]: 7.26; pIC50 (Adenosine receptor A3): 7.92
64.5% | 15.2 mL/min/kg | 1270 ng/mL | 1.94 L/kg | – | 7.49 | 7100 ng·h/mL | 2.6 h | 7090 ng·h/mL | N#Cc1ccnc(N2C(=O)CC[C@H]2C(=O)N(c2cncc(F)c2)[C@H](C(=O)NC2CC(F)(F)C2)c2ccccc2Cl)c1 [IVOSIDENIB] | pIC50 [20]: 8.05; pIC50 [21]: 7.17; inhibition in vivo at 50 mg/kg [22]: 50%; inhibition in vivo at 50 mg/kg [23]: 78%
– | – | – | – | – | – | – | – | – | C[C@@H](Nc1nc(N[C@H](C)C(F)(F)F)nc(-c2cccc(Cl)n2)n1)C(F)(F)F [VORASIDENIB] | Kp at 16 h [24]: 1.4; Kp at 24 h [25]: 1.2
